Source: patent US12295936B2, “Immunomodulating urea azalides” (Zoetis Services LLC, priority 2020, dated 2025)

Each compound was assayed on BRD pathogens, M. haemolytica and P. multocida (assay: MIC screening panel of BRD pathogens (antibacterial / non-antibacterial)). Conditions: read-out: antibacterial / non-antibacterial (MIC for the BRD pathogens).

Row | SMILES | MIC
1 | CCCNC[C@]1(O)[C@H](C)O[C@@H](O[C@H]2[C@H](C)[C@@H](O[C@@H]3O[C@H](C)C[C@H](N(C)C(=O)Nc4cccc(F)c4)[C@H]3O)[C@](C)(O)C[C@@H](C)CN[C@H](C)[C@@H](O)[C@](C)(O)[C@@H](CC)OC(=O)[C@@H]2C)C[C@@]1(C)OC [Example H-85, 1-((2S,3R,4S,6R)-2-(((2R,3S,4R,5R,8R,10R,11R,12S,13S,14R)-2-ethyl-3,4,10-trihydroxy-13-(((2R,4R,5S,6S)-5-hydroxy-4-methoxy-4,6-dimethyl-5-((propylamino)methyl)tetrahydro-2H-pyran-2-yl)oxy)-3,5,8,10,12,14-hexamethyl-15-oxo-1-oxa-6-azacyclopentadecan-11-yl)oxy)-3-hydroxy-6-methyltetrahydro-2H-pyran-4-yl)-3-(3-fluorophenyl)-1-methylurea] | > 64 µg/mL
2 | CCCNC[C@]1(O)[C@H](C)O[C@@H](O[C@H]2[C@H](C)[C@@H](O[C@@H]3O[C@H](C)C[C@H](N(C)C(=O)Nc4ccccc4Cl)[C@H]3O)[C@](C)(O)C[C@@H](C)CN[C@H](C)[C@@H](O)[C@](C)(O)[C@@H](CC)OC(=O)[C@@H]2C)C[C@@]1(C)OC [Example H-80, 3-(2-chlorophenyl)-1-((2S,3R,4S,6R)-2-(((2R,3S,4R,5R,8R,10R,11R,12S,13S,14R)-2-ethyl-3,4,10-trihydroxy-13-(((2R,4R,5S,6S)-5-hydroxy-4-methoxy-4,6-dimethyl-5-((propylamino)methyl)tetrahydro-2H-pyran-2-yl)oxy)-3,5,8,10,12,14-hexamethyl-15-oxo-1-oxa-6-azacyclopentadecan-11-yl)oxy)-3-hydroxy-6-methyltetrahydro-2H-pyran-4-yl)-1-methylurea] | > 64 µg/mL
3 | CCCNC[C@]1(O)[C@H](C)O[C@@H](O[C@H]2[C@H](C)[C@@H](O[C@@H]3O[C@H](C)C[C@H](N(C)C(=O)N(c4ccccc4)C(C)C)[C@H]3O)[C@](C)(O)C[C@@H](C)CN[C@H](C)[C@@H](O)[C@](C)(O)[C@@H](CC)OC(=O)[C@@H]2C)C[C@@]1(C)OC [Example H-17, 1-((2S,3R,4S,6R)-2-(((2R,3S,4R,5R,8R,10R,11R,12S,13S,14R)-2-ethyl-3,4,10-trihydroxy-13-(((2R,4R,5S,6S)-5-hydroxy-4-methoxy-4,6-dimethyl-5-((propylamino)methyl)tetrahydro-2H-pyran-2-yl)oxy)-3,5,8,10,12,14-hexamethyl-15-oxo-1-oxa-6-azacyclopentadecan-11-yl)oxy)-3-hydroxy-6-methyltetrahydro-2H-pyran-4-yl)-3-isopropyl-1-methyl-3-phenylurea] | > 64 µg/mL
4 | CCCN(C[C@]1(O)[C@H](C)O[C@@H](O[C@H]2[C@H](C)[C@@H](O[C@@H]3O[C@H](C)C[C@H](N(C)C(=O)Nc4ccc(F)cc4)[C@H]3O)[C@](C)(O)C[C@@H](C)CN[C@H](C)[C@@H](O)[C@](C)(O)[C@@H](CC)OC(=O)[C@@H]2C)C[C@@]1(C)OC)C(=O)Nc1ccc(F)cc1 [Example H-10, 1-((2S,3R,4S,6R)-2-(((2R,3S,4R,5R,8R,10R,11R,12S,13S,14R)-2-ethyl-13-(((2R,4R,5S,6S)-5-((3-(4-fluorophenyl)-1-propylureido)methyl)-5-hydroxy-4-methoxy-4,6-dimethyltetrahydro-2H-pyran-2-yl)oxy)-3,4,10-trihydroxy-3,5,8,10,12,14-hexamethyl-15-oxo-1-oxa-6-azacyclopentadecan-11-yl)oxy)-3-hydroxy-6-methyltetrahydro-2H-pyran-4-yl)-3-(4-fluorophenyl)-1-methylurea] | > 64 µg/mL
5 | CCCNC[C@]1(O)[C@H](C)O[C@@H](O[C@H]2[C@H](C)[C@@H](O[C@@H]3O[C@H](C)C[C@H](N(C)C(=O)Nc4cccc(OC)c4)[C@H]3O)[C@](C)(O)C[C@@H](C)CN[C@H](C)[C@@H](O)[C@](C)(O)[C@@H](CC)OC(=O)[C@@H]2C)C[C@@]1(C)OC [Example H-86, 1-((2S,3R,4S,6R)-2-(((2R,3S,4R,5R,8R,10R,11R,12S,13S,14R)-2-ethyl-3,4,10-trihydroxy-13-(((2R,4R,5S,6S)-5-hydroxy-4-methoxy-4,6-dimethyl-5-((propylamino)methyl)tetrahydro-2H-pyran-2-yl)oxy)-3,5,8,10,12,14-hexamethyl-15-oxo-1-oxa-6-azacyclopentadecan-11-yl)oxy)-3-hydroxy-6-methyltetrahydro-2H-pyran-4-yl)-3-(3-methoxyphenyl)-1-methylurea] | > 64 µg/mL
6 | CC[C@H]1OC(=O)[C@H](C)[C@@H](O)[C@H](C)[C@@H](O[C@@H]2O[C@H](C)C[C@H](N(C)C(=O)Nc3cccc(C(F)(F)F)c3)[C@H]2O)[C@](C)(O)C[C@@H](C)CN[C@H](C)[C@@H](O)[C@]1(C)O [Example A-10, 1-((2S,3R,4S,6R)-2-(((2R,3S,4R,5R,8R,10R,11R,12S,13S,14R)-2-ethyl-3,4,10,13-tetrahydroxy-3,5,8,10,12,14-hexamethyl-15-oxo-1-oxa-6-azacyclopentadecan-11-yl)oxy)-3-hydroxy-6-methyltetrahydro-2H-pyran-4-yl)-1-methyl-3-(3-(trifluoromethyl)phenyl)urea] | > 64 µg/mL
7 | CCCNC(=O)N(C)[C@H]1C[C@@H](C)O[C@@H](O[C@@H]2[C@@H](C)[C@H](O[C@H]3C[C@@](C)(OC)[C@](O)(CNC4CCC4)[C@H](C)O3)[C@@H](C)C(=O)O[C@H](CC)[C@@](C)(O)[C@H](O)[C@@H](C)NC[C@H](C)C[C@@]2(C)O)[C@@H]1O [Example H-94, 1-((2S,3R,4S,6R)-2-(((2R,3S,4R,5R,8R,10R,11R,12S,13S,14R)-13-(((2R,4R,5S,6S)-5-((cyclobutylamino)methyl)-5-hydroxy-4-methoxy-4,6-dimethyltetrahydro-2H-pyran-2-yl)oxy)-2-ethyl-3,4,10-trihydroxy-3,5,8,10,12,14-hexamethyl-15-oxo-1-oxa-6-azacyclopentadecan-11-yl)oxy)-3-hydroxy-6-methyltetrahydro-2H-pyran-4-yl)-1-methyl-3-propylurea] | > 64 µg/mL
8 | CCOC[C@]1(O)[C@H](C)O[C@@H](O[C@H]2[C@H](C)[C@@H](O[C@@H]3O[C@H](C)C[C@H](N(C)C(=O)Nc4ccccc4)[C@H]3O)[C@](C)(O)C[C@@H](C)CN[C@H](C)[C@@H](O)[C@](C)(O)[C@@H](CC)OC(=O)[C@@H]2C)C[C@@]1(C)OC [Example C-1, 1-((2S,3R,4S,6R)-2-(((2R,3S,4R,5R,8R,10R,11R,12S,13S,14R)-13-(((2R,4R,5S,6S)-5-(ethoxymethyl)-5-hydroxy-4-methoxy-4,6-dimethyltetrahydro-2H-pyran-2-yl)oxy)-2-ethyl-3,4,10-trihydroxy-3,5,8,10,12,14-hexamethyl-15-oxo-1-oxa-6-azacyclopentadecan-11-yl)oxy)-3-hydroxy-6-methyltetrahydro-2H-pyran-4-yl)-1-methyl-3-phenylurea] | > 64 µg/mL
9 | CC[C@H]1OC(=O)[C@H](C)[C@@H](O[C@H]2C[C@@](C)(OC)[C@](O)(CNCCC3CC3)[C@H](C)O2)[C@H](C)[C@@H](O[C@@H]2O[C@H](C)C[C@H](N(C)C(=O)N(C)c3ccccc3)[C@H]2O)[C@](C)(O)C[C@@H](C)CN[C@H](C)[C@@H](O)[C@]1(C)O [Example H-34, 1-((2S,3R,4S,6R)-2-(((2R,3S,4R,5R,8R,10R,11R,12S,13S,14R)-13-(((2R,4R,5S,6S)-5-(((2-cyclopropylethyl)amino)methyl)-5-hydroxy-4-methoxy-4,6-dimethyltetrahydro-2H-pyran-2-yl)oxy)-2-ethyl-3,4,10-trihydroxy-3,5,8,10,12,14-hexamethyl-15-oxo-1-oxa-6-azacyclopentadecan-11-yl)oxy)-3-hydroxy-6-methyltetrahydro-2H-pyran-4-yl)-1,3-dimethyl-3-phenylurea] | > 64 µg/mL
